Reference: patent US8962637B2, “Bicyclic compounds and their uses as dual c-SRC/JAK inhibitors” (Debiopharm S.A., priority 2010, dated 2015)

Tests used:
JAK2 = JAK2 (Homo sapiens (Human), UniProt O60674); experiment: TR-FRET JAK2 kinase assay; format: biochemical; conditions: ATP 10 μM
Protocol: Compounds were screened in the TR-FRET assay for JAK2 and c-Src kinase inhibition. Ultra light poly GT (Perkin Elmer) was used as the substrate for JAK2 and c-Src with the ATP concentration of 10 μM and 50 μM, respectively. […] The dose-response curve fitting was done using GraphPad Prism software.

Mda-Mb-231 cells = experiment: Cell viability assay (XTT assay), Mda-Mb-231; format: cell-based; conditions: Homo sapiens, 72 hrs
Outline: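 MDA-MB-231 cells seeded and dosed next day in triplicate, incubated 72 h. Medium replaced with XTT working solution for 2-5 h, absorbance read at 465 nm, and EC50 values derived from the readings.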

pStat3 [1] = experiment: In-Cell-Western blot assay for pStat3 (ICW) in A431 cells; format: cell-based; conditions: Homo sapiens, A-431, 2 hrs, read-out: pSTAT3 inhibition
Outline: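 Serum-starved (overnight) A431 cells treated with compound for 2 hrs, then fixed, permeabilized and probed with phospho-Stat3 antibody plus europium-labelled secondary. Europium signal normalized to Hoechst for cell number; IC50 calculated from normalized values.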

[2] = mouse, in vivo
pStat3 [3] = experiment: Quantification of pStat3 in tumors by flow cytometry; format: in vivo, mice
Protocol: Measured pStat3 using FACS caliber machine (BD). Unstained PBMCs was used for cytometry settings. […] Histograms (cell number V/s FL1-H) were plotted. Percentage of cells that are phosphorylated by IL6 stimulation (M2 population), and inhibition of phosphorylation by inhibitor (decrease in M2 population) are calculated on histogram by marking peaks, M1 and M2.
Separate the tumour & 200 mg of tumour was crashed (45 mg per ml) by using IKA 10 at Speed #4 for 10 seconds. Sieve the tumour extract through 100 u, centrifuge at 900 g for 10 min. Re-suspend cells briefly in 0.5-1 ml PBS. Add formaldehyde to a final concentration of 2-4% formaldehyde. Fix for 10 minutes at 37° C. Chill tubes on ice for 1 minute.
Permeabilize cells by adding ice-cold 100% methanol slowly to pre-chilled cells, while gently vortexing, to a final concentration of 90% methanol. Alternatively, to remove fix prior to permeabilization, pellet cells by centrifugation and re-suspend in 90% methanol. Incubate 30 minutes on ice. Proceed with staining or store cells at −20° C. in 90% methanol. Aliquot 0.5-1×10^6 cells into each assay tube (by volume). Add 2-3 ml Incubation Buffer to each tube and rinse by centrifugation. Repeat. Re-suspend cells in 100 μl Incubation Buffer per assay tube. Analyze by flow cytometry like PBMCs.

A431 cancer cell line = experiment: Inhibition of cell growth in A431; format: cell-based; conditions: Homo sapiens, A-431
Volume distribution = conditions: in vivo
Source text: Table 8 provides some volume distribution values of the compounds of the present invention.

[4] = MTD / tolerance in athymic mice; conditions: once-daily 14 days treatment in athymic mice
A549 cells = experiment: Cell viability assay (XTT assay), A549; format: cell-based; conditions: Homo sapiens, 72 hrs
Protocol: Next day compounds were added to cells and incubated for 72 hrs. Compound treatment was done in triplicates. After 72 hrs cell culture media was aspirated from the wells and XTT working solution was added and plates were incubated for 2-5 hrs. […] EC50 values were calculated using Graphpad Prism. Tumor cell lines used in the examples of the present invention were procured from ATCC. Description of the cell lines is included in the following table: […]

Sequence of JAK2 (O60674 whole entry): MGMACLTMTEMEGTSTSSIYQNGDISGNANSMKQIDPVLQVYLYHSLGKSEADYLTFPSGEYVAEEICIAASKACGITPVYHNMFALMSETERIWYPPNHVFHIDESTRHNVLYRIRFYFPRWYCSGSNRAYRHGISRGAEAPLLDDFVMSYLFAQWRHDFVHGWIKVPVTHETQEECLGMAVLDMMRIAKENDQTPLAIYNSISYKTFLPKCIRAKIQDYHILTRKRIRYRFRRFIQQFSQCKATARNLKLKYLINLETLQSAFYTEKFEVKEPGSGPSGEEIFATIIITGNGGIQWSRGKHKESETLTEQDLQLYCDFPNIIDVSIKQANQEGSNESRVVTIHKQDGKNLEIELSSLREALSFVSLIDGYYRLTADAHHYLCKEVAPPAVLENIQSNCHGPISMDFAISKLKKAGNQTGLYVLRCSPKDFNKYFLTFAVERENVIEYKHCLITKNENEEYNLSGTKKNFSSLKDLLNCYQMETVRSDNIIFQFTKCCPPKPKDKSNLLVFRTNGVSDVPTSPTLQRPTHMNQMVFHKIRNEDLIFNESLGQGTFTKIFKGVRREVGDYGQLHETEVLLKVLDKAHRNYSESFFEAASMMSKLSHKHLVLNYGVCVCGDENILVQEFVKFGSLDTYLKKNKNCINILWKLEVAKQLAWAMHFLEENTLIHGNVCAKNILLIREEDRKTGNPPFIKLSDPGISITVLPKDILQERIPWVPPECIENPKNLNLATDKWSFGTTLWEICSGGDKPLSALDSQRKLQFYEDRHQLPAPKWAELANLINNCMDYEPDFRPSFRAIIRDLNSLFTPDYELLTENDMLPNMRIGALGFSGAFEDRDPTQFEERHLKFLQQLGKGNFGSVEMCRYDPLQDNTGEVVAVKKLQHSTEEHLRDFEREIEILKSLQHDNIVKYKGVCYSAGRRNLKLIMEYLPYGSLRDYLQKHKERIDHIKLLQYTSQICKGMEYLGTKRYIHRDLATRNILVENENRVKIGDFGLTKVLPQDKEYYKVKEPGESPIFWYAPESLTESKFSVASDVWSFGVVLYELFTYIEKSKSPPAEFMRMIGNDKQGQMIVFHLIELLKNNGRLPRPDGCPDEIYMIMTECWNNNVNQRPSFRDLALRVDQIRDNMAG

Row | Compound | IC50 (JAK2) [µM] | EC50 (Mda-Mb-231 cells) [µM] | IC50 (pStat3 [1]) [µM] | good tolerance ([2]; athymic, 14 days) | MTD [2] [MPK] | Tumors % pStat3 inhibition (pStat3 [3]; A431 Xenograft model, 100 MPK) [%] | Tumors % pStat3 inhibition (pStat3 [3]; A549 Xenograft model, 10 MPK) [%] | Tumors % pStat3 inhibition (pStat3 [3]; A549 Xenograft model, 30 MPK) [%] | Tumors % pStat3 inhibition (pStat3 [3]; A549 Xenograft model, 100 MPK) [%] | Tumors % pStat3 inhibition (pStat3 [3]; A549 Xenograft model, 150 MPK) [%] | % pSTAT3 inhib. (tumour) (pStat3 [3]; Efficacy - A431 at 100 MPK) [%] | % pSTAT3 inhib. (tumour) (pStat3 [3]; Efficacy - A549, at 100 MPK) [% at] | EC50 (A431 cancer cell line) [µM] | Vd (Volume distribution) [L/kg] | toxicity effects on major organs [4] | EC50 (A549 cells) [µM] | inhibition at 0.1 µM (JAK2; read-out: JAK2 % inhibition at 100 nM, 100 nM) [%] | inhibition at 1 µM (JAK2; read-out: JAK2 % inhibition at 1 μM, 1 μM) [%] | % pSTAT3 inhib. (tumour) (pStat3 [3]; Efficacy - A549, at 30 MPK) [% at]
1 | Cc1ccc(NC(=O)c2cccc(C(F)(F)F)c2)cc1N1CCc2nc(Nc3ccc(N4CCN(C)CC4)cc3)ncc2C1=O [Compound 45, N-(4-Methyl-3-{2-[4-(4-methyl-piperazin-1-yl)-phenylamino]-5-oxo-7,8-dihydro-5H-pyrido[4,3-d]pyrimidin-6-yl}-phenyl)-3-trifluoromethyl-benzamide] | 0.015 | 1.83 | 0.22 | up to 250 MPK | 250 | 44.3 | 44.46 | 48.92 | 61.51 | 57.08 | 45 | 62 | 1.4 | 5.89 | does not cause pronounced toxicity effects on major organs | 1.07 | – | – | –
2 | Cc1ccc(NC(=O)c2cccc(C(F)(F)F)c2)cc1N1CCc2nc(Nc3ccc(C(=O)NC4CC4)nc3)ncc2C1 [Compound 117, 5-{6-[2-Methyl-5-(3-trifluoromethyl-benzoylamino)-phenyl]-5,6,7,8-tetrahydro-pyrido[4,3-d]pyrimidin-2-ylamino}-pyridine-2-carboxylic acid cyclopropylamide] | 0.018 | 0.66 | 0.34 | – | 100 | – | – | – | – | – | 10 | 47 | 0.33 | – | – | 0.025 | – | – | –
3 | CNC(=O)c1ccc(Nc2ncc3c(n2)CCN(c2cc(NC(=O)c4cc(C(F)(F)F)ccn4)ccc2Cl)C3)cc1 [Compound 179, 4-Trifluoromethyl-pyridine-2-carboxylic acid {4-chloro-3-[2-(4-methylcarbamoyl-phenylamino)-7,8-dihydro-5H-pyrido[4,3-d]pyrimidin-6-yl]-phenyl}-amide] | 0.0064 | 0.9 | 0.28 | – | 30 | – | – | – | – | – | 54 | – | – | – | – | – | 81 | 92 | 79
